From PubChem BioAssay (NCI)
“And” between values parts separate entries of the source, which are not always exact repeats. Equal entries are not always repeated.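 Each compound was tested at five concentrations against cells in 96-well plates for 48 hours. GI50 = concentration required for 50% inhibition of growth. TGI is the concentration that stops growth completely.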 Where a SMILES comes first, the peptide text is derived from it. The star is where a group is joined. Trt = c1ccc(C(c2ccccc2)(c2ccccc2)*)cc1; Cbz = O=C(OCc1ccccc1)*

Key:
Experiment in all cases: inhibition of tumour cell growth, NCI panel, 48 h
786-0 renal = test system: 786-0 renal
ACHN renal = test system: ACHN renal
BT-549 breast = test system: BT-549 breast
CCRF-CEM leukemia = test system: CCRF-CEM leukemia
DU-145 prostate = test system: DU-145 prostate
HCC-2998 colon = test system: HCC-2998 colon
RPMI-8226 leukemia = test system: RPMI-8226 leukemia
RXF 393 renal = test system: RXF 393 renal
SNB-19 CNS = test system: SNB-19 CNS
U251 CNS = test system: U251 CNS

| Molecule | GI50 (786-0 renal) | TGI (786-0 renal) | GI50 (ACHN renal) | TGI (ACHN renal) [µM] | GI50 (BT-549 breast) | TGI (BT-549 breast) | GI50 (CCRF-CEM leukemia) | TGI (CCRF-CEM leukemia) [µM] | GI50 (DU-145 prostate) | TGI (DU-145 prostate) [µM] | GI50 (HCC-2998 colon) | TGI (HCC-2998 colon) [µM] | GI50 (RPMI-8226 leukemia) | TGI (RPMI-8226 leukemia) [µM] | GI50 (RXF 393 renal) | TGI (RXF 393 renal) | GI50 (SNB-19 CNS) | TGI (SNB-19 CNS) [µM] | GI50 (U251 CNS) [µM] | TGI (U251 CNS) |
| --- | --- | --- | --- | --- | --- | --- | --- | --- | --- | --- | --- | --- | --- | --- | --- | --- | --- | --- | --- | --- |
| C=CC(C)(O)CC/C=C(\CO)C(=O)OC1C(C)OC(O[C@](C)(C=C)CC/C=C(\CO)C(=O)O[C@H]2C[C@@]3(C(=O)OC4OC(CO)C(O)C(O)C4OC4OC(C)C(OC5OC(CO)C(O)C5O)C(OC5OC(CO)C(O)C(O)C5O)C4O)C(CC2(C)C)C2=CCC4[C@@]5(C)CC[C@H](OC6OC(COC7OC(C)C(O)C(O)C7OC7OCC(O)C(O)C7O)C(O)C(O)C6NC(C)=O)C(C)(C)C5CC[C@@]4(C)[C@]2(C)C[C@H]3O)C(O)C1O (stereo not given in full) | 0.155 µM | 0.668 µM | 0.0771 µM | 0.209 | 5.04 µM | 10.6 µM | 0.125 µM | 7.55 | 0.131 µM | 0.512 | 0.0688 µM | 0.195 | 5 µM | 18 | 0.754 µM | 4.03 µM | 0.107 µM | 1.12 | 0.101 | 0.45 µM |
| COc1ccc2c(c1)/C(=N/OC(C)=O)c1c-2cnc2ccccc12 | 17.8 µM | 33.2 µM | 20.4 µM | 45.4 | 49.5 µM | > 100 µM | 28.5 µM | > 100 | 36 µM | > 100 | 39.1 µM | > 100 | 22.3 µM | 81.5 | 26.4 µM | 68.5 µM | 36.6 µM | > 100 | 19.3 | 39.4 µM |
| Cn1cc(C2=C(c3cn(CCCCC(=N)N)c4ccccc34)C(=O)NC2=O)c2ccccc21 | > 25 µM | > 25 µM | > 25 µM | > 25 | > 25 µM | > 25 µM | 11.5 µM | > 25 | > 25 µM | > 25 | > 25 µM | > 25 | > 25 µM | > 25 | > 25 µM | > 25 µM | 21.8 µM | > 25 | 17.2 | > 25 µM |
| Cn1cc(-c2nc(N[C@@H]3CCCC[C@@H]3N)c(F)c3c2C(=O)NC3)cn1 | 3.99 µM and 6.36 µM | 22.1 µM and > 52.4 µM | 3.08 µM and 4.65 µM | > 100 | 6.47 µM and 10 µM | 21.3 µM and 29.7 µM | 5.09 µM and 5.26 µM | > 100 | 11.5 µM and 14.4 µM | > 100 | 26.6 µM and 28.2 µM | > 100 | 26.2 µM and 29.1 µM | > 100 | 1.99 µM and 2.47 µM | 10.5 µM and 12.5 µM | 27.3 µM and 29 µM | > 100 | 15.3 | 33.9 µM and 36.3 µM |
| O=C(/C=C/c1ccco1)c1ccc(Nc2nc(Nc3ccc(F)cc3)nc(Nc3ccc(F)cc3)n2)cc1 | 48.8 µM | > 100 µM | > 100 µM | > 100 | 4.9 µM | 26.8 µM | 19 µM | > 100 | 28.8 µM | > 100 | 36 µM | > 100 | 8.99 µM | > 100 | 41.4 µM | > 100 µM | 20.5 µM | 70.8 | 21.6 | 42.2 µM |
| O=S(=O)(O)SCCNCCCCCC1CCCCC1 | – | 28 µM | – | 30.3 | – | 31.4 µM | – | > 100 | – | 12.1 | – | 10.5 | – | 42.1 | – | 38 µM | – | 10.8 | – | 11.7 µM |
| Cc1cc2nc(-c3c(F)cccc3Cl)n(Cc3c(F)cccc3Cl)c2cc1C | 15.8 µM | 31.3 µM | 14.5 µM | 45.6 | 18.5 µM | 46.2 µM | 2.6 µM | > 100 | 16.1 µM | 41.4 | 11.2 µM | 23.7 | 16.3 µM | > 100 | 11.8 µM | 28.4 µM | 25.5 µM | 93.7 | 14.1 | 29.9 µM |
| COc1cc(/C=N/NC(=O)c2ccccc2Nc2cccc(C(F)(F)F)c2)cc(OC)c1OC | 3.22 µM | 11.6 µM | 3.3 µM | 13.3 | 2.3 µM | 9.23 µM | 1.03 µM | 4.33 | 2.61 µM | 8.39 | 5.29 µM | 15.6 | 0.754 µM | > 22.7 | 2.35 µM | 5.87 µM | 3.85 µM | 18.5 | 2.28 | 6.03 µM |
| O=C(CCCCCCCCC(=O)N/N=C\c1cc(Cl)ccc1O)N/N=C\c1cc(Cl)ccc1O | 0.287 µM | 15.5 µM | 0.175 µM | > 100 | 0.526 µM | 96.8 µM | 0.172 µM | 24.6 | 0.495 µM | > 100 | 3.32 µM | > 100 | 0.847 µM | > 100 | 0.208 µM | 7.78 µM | 0.813 µM | > 100 | 0.192 | 25.9 µM |
| COC(=O)/C(=N\Nc1nnc(C)n1N)C(C#N)c1ccccc1 (stereo not given) | – | > 55.1 µM | – | > 71.1 | – | > 100 µM | – | > 100 | – | > 100 | – | > 100 | – | > 100 | – | > 100 µM | – | > 100 | – | > 100 µM |
| Cn1cc(NC(=O)Nc2cc(C(=O)Nc3cc(C(=O)Nc4cc(S(=O)(=O)O)c5cc(S(=O)(=O)O)cc(S(=O)(=O)O)c5c4)n(C)c3)n(C)c2)cc1C(=O)Nc1cc(C(=O)Nc2cc(S(=O)(=O)O)c3cc(S(=O)(=O)O)cc(S(=O)(=O)O)c3c2)n(C)c1 | – | > 100 µM | – | > 100 | – | > 100 µM | – | > 100 | – | > 100 | – | > 100 | – | > 100 | – | > 100 µM | – | > 100 | – | > 100 µM |
| COC(=O)C(CSC(c1ccccc1)(c1ccccc1)c1ccccc1)NC(=O)C(CC(N)=O)NC(=O)OCc1ccccc1 (stereo not drawn) (Cbz-Asn-Cys(Trt)-OMe; configuration not given here) | 3.44 µM | 12.6 µM | 5.11 µM | 22.4 | 14.8 µM | 35.7 µM | 3.33 µM | 19.7 | 2.68 µM | 8.61 | 2.03 µM | 4.82 | 2.29 µM | 5.93 | 3.17 µM | 13.5 µM | 5.22 µM | 18.9 | 5.87 | 18.5 µM |
| NNC(=O)C(O)C(O)C(=O)NN (stereo not given) | – | > 100 µM | – | > 100 | – | > 100 µM | – | > 100 | – | > 100 | – | > 100 | – | > 100 | – | > 100 µM | – | > 100 | – | > 100 µM |
| CNC(c1ccncc1)C(NC)c1ccncc1 (stereo not given) | – | > 100 µM | – | > 100 | – | > 100 µM | – | > 100 | – | > 100 | – | > 100 | – | > 100 | – | > 100 µM | – | > 100 | – | > 100 µM |
| Cc1ccc(S(=O)(=O)NC(CO)C(=O)O)cc1 (stereo not given) | – | > 100 µM | – | > 100 | – | > 100 µM | – | > 100 | – | > 100 | – | > 100 | – | > 100 | – | > 100 µM | – | > 100 | – | > 100 µM |
| H-QIYKKYRTWYRKAWKVLGKV-NH2 | 3.04 µM | 16.8 µM | 12 µM | 25.5 | 5.36 µM | 27.2 µM | 4.14 µM | > 100 | 3.54 µM | 11.8 | 17.5 µM | 63.4 | 6.85 µM | 77.7 | 4.55 µM | 27.4 µM | 17.5 µM | 68.6 | 12 | > 100 µM |
| Cc1c(Cl)cccc1NC(=O)c1sc2nc3c(cc2c1N)CCCC3 | 0.681 µM | > 100 µM | 0.785 µM | > 100 | 0.591 µM | > 100 µM | 0.447 µM | > 100 | 1.38 µM | > 100 | > 100 µM | > 100 | 1.61 µM | > 100 | 0.514 µM | > 89.6 µM | 0.979 µM | > 100 | 0.504 | > 100 µM |
| O=C1/C(=C\c2ccccc2)C2OCC=C3CN4CCC56c7ccccc7N1C5C2C3CC46 (stereo not given) | 9.86 µM | > 100 µM | 7.98 µM | > 100 | 34.2 µM | > 100 µM | 6.06 µM | > 100 | > 100 µM | > 100 | 4.93 µM | > 100 | 5.54 µM | > 100 | 35.8 µM | > 100 µM | > 100 µM | > 100 | 13.1 | > 100 µM |
